A word on the IC50: it is the point on the concentration scale where inhibition reaches its midpoint.

Counter-ions that a name gives are not always drawn.

The assay has as its target FGFR2 (Homo sapiens, UniProt P21802). The assay is described as follows: FGFR2 Kinase Protocol - Condition 2 (Reaction Biology HotSpot radiometric kinase assay, no preincubation). In kind it is biochemical. To be noted: poly[Glu:Tyr] (4:1) 0.2 mg/ml, ATP 100 microM, 2 hr room temperature. The method in brief:
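Ten-point, 3-fold compound dilutions were tested against wildtype or V564F FGFR2 with 100 µM ATP (33P-labelled), no preincubation, and 0.2 mg/ml poly[Glu:Tyr] (4:1) substrate. After 2 hr at room temperature, incorporation was read on P81 filter paper; IC50 fitted from activity remaining relative to vehicle.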

Chain of FGFR2 (P21802 22-821): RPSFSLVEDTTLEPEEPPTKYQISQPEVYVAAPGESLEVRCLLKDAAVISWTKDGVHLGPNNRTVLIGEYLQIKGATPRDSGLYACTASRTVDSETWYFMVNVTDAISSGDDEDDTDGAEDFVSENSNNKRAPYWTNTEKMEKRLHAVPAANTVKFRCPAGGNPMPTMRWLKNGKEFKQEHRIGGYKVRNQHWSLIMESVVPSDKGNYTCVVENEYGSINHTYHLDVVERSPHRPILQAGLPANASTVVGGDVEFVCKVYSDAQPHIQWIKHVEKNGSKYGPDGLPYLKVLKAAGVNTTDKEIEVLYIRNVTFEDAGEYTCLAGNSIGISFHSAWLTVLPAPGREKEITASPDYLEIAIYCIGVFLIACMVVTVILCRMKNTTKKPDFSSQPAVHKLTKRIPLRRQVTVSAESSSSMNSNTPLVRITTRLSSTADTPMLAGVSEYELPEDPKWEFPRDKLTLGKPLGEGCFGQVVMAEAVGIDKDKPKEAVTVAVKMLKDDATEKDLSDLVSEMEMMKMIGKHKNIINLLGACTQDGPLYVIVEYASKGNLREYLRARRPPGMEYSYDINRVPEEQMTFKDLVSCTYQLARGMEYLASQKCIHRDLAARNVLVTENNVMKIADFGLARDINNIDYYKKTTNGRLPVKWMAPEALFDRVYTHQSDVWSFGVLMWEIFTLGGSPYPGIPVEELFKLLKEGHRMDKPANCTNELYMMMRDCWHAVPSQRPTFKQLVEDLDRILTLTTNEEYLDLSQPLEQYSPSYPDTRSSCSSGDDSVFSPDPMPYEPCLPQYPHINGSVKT

`C=CC(=O)N1C[C@@H](n2nc(C#Cc3c(F)cc4c(nc(C)n4CC)c3F)c3c(N)ncnc32)C[C@@H]1COC` [Example 32, 1-((2R,4S)-4-(4-amino-3-((1-ethyl-4,6-difluoro-2-methyl-1H-benzo[d]imidazol-5-yl)ethynyl)-1H-pyrazolo[3,4-d]pyrimidin-1-yl)-2-(methoxymethyl)pyrrolidin-1-yl)prop-2-en-1-one] returned an IC50 of at most 100 nM.

The compound `C=CC(=O)N1C[C@@H](n2nc(C#Cc3cc4nc(C)n(C(F)F)c4cc3Cl)c3c(N)ncnc32)C[C@@H]1COC` [Example 129, 1-[(2R,4S)-4-(4-Amino-3-{2-[6-chloro-1-(difluoromethyl)-2-methyl-1,3-benzodiazol-5-yl]ethynyl}pyrazolo[3,4-d]pyrimidin-1-yl)-2-(methoxymethyl)pyrrolidin-1-yl]prop-2-en-1-one] gave an IC50 of at most 100 nM.

In turn, `C=CC(=O)N1C[C@@H](n2nc(C#Cc3ccc4ocnc4c3)c3c(N)ncnc32)C[C@@H]1COC` [Example 115, 1-[(2R,4S)-4-[4-Amino-3-[2-(1,3-benzoxazol-5-yl)ethynyl]pyrazolo[3,4-d]pyrimidin-1-yl]-2-(methoxymethyl)pyrrolidin-1-yl]prop-2-en-1-one] registered an IC50 of at most 100 nM.

For the compound `C=CC(=O)N1C[C@@H](n2cc(C#Cc3cc4ncn(C)c4cc3F)c3c(N)ncnc32)C[C@@H]1CF` [Example 186, 1-((2R,4S)-4-(4-Amino-5-((6-fluoro-1-methyl-1H-benzo[d]imidazol-5-yl)ethynyl)-7H-pyrrolo[2,3-d]pyrimidin-7-yl)-2-(fluoromethyl)pyrrolidin-1-yl)prop-2-en-1-one], the IC50 is at most 100 nM.

In turn, `C=CC(=O)N1C[C@@H](n2nc(C#Cc3cc4ncn(C)c4c(F)c3F)c3c(N)ncnc32)C[C@@H]1COC` [Example 120, 1-((2R,4S)-4-(4-Amino-3-((6,7-difluoro-1-methyl-1H-benzo[d]imidazol-5-yl)ethynyl)-1H-pyrazolo[3,4-d]pyrimidin-1-yl)-2-(methoxymethyl)pyrrolidin-1-yl)prop-2-en-1-one] gave an IC50 of at most 100 nM.

On to `C=CC(=O)N1C[C@@H](n2nc(C#Cc3cc4ncn(C5CC5)c4cc3F)c3c(N)ncnc32)C[C@@H]1COC(F)(F)F` [Example 78, 1-((2R,4S)-4-(4-Amino-3-((1-cyclopropyl-6-fluoro-1H-benzo[d]imidazol-5-yl)ethynyl)-1H-pyrazolo[3,4-d]pyrimidin-1-yl)-2-((trifluoromethoxy)methyl)pyrrolidin-1-yl)prop-2-en-1-one], for which the IC50 is at most 100 nM.

With `C=CC(=O)N1C[C@@H](c2nc(C#Cc3cc4ncn(C5CC5)c4cc3F)c3c(N)nccn23)C[C@@H]1COC` [Example 203, 1-[(2R,4S)-4-{8-Amino-1-[2-(1-cyclopropyl-6-fluoro-1,3-benzodiazol-5-yl)ethynyl]imidazo[1,5-a]pyrazin-3-yl}-2-(methoxymethyl)pyrrolidin-1-yl]prop-2-en-1-one], the IC50 is at most 100 nM.

`C=CC(=O)N1C[C@@H](n2nc(C#Cc3cc4ncn(CC)c4c(F)c3F)c3c(N)nccc32)C[C@@H]1CC#N` [Example 160, 2-[(2R,4S)-4-{4-Amino-3-[2-(1-ethyl-6,7-difluoro-1,3-benzodiazol-5-yl)ethynyl]pyrazolo[4,3-c]pyridin-1-yl}-1-(prop-2-enoyl)pyrrolidin-2-yl]acetonitrile]: the IC50 was at most 100 nM.

On to `C=CC(=O)N1C[C@@H](n2nc(C#Cc3ccn4ncnc4c3)c3c(N)ncnc32)C[C@@H]1COC` [Example 114, 1-[(2R,4S)-4-[4-Amino-3-(2-[[1,2,4]triazolo[1,5-a]pyridin-7-yl]ethynyl)pyrazolo[3,4-d]pyrimidin-1-yl]-2-(methoxymethyl)pyrrolidin-1-yl]prop-2-en-1-one], for which the IC50 lay within 100 to 1000 nM.

For the compound `C=CC(=O)N1C[C@@H](n2nc(C#Cc3ccc4c(c3)nc(C)n4CC)c3c(N)nccc32)C[C@@H]1CC#N` [Example 53, 2-[(2R,4S)-4-[4-Amino-3-[2-(1-ethyl-2-methyl-1,3-benzodiazol-5-yl)ethynyl]pyrazolo[4,3-c]pyridin-1-yl]-1-(prop-2-enoyl)pyrrolidin-2-yl]acetonitrile; formic acid], the IC50 was at most 100 nM.

As to `C=CC(=O)N1CC[C@H](n2nc(C#Cc3cc4ncn(CC)c4c(F)c3Cl)c3c(N)ncnc32)C1` [Example 144, 1-[(3S)-3-{4-Amino-3-[2-(6-chloro-1-ethyl-7-fluoro-1,3-benzodiazol-5-yl)ethynyl]pyrazolo[3,4-d]pyrimidin-1-yl}pyrrolidin-1-yl]prop-2-en-1-one], the IC50 was at most 100 nM.

`C=CC(=O)N1C[C@@H](n2nc(C#Cc3cc4ncn(C)c4cc3F)c3c(N)nccc32)C[C@@H]1COC(F)(F)F` [Example 59, 1-((2R,4S)-4-(4-amino-3-((6-fluoro-1-methyl-1H-benzo[d]imidazol-5-yl)ethynyl)-1H-pyrazolo[4,3-c]pyridin-1-yl)-2-((trifluoromethoxy)methyl)pyrrolidin-1-yl)prop-2-en-1-one formate] returned an IC50 of at most 100 nM.

`C=CC(=O)N1C[C@@H](n2cc(C#Cc3c(Cl)cc4c(ncn4C)c3F)c3c(N)ncnc32)C[C@@H]1COC` [Example 106, 1-[(2R,4S)-4-[4-Amino-5-[2-(6-chloro-4-fluoro-1-methyl-1,3-benzodiazol-5-yl)ethynyl]pyrrolo[2,3-d]pyrimidin-7-yl]-2-(methoxymethyl)pyrrolidin-1-yl]prop-2-en-1-one] returned an IC50 of at most 100 nM.

As to `C=CC(=O)N1C[C@@H](n2nc(C#Cc3cc4ncn(C)c4c(F)c3Cl)c3c(N)nccc32)C[C@@H]1CC#N` [Example 174, 2-[(2R,4S)-4-{4-Amino-3-[2-(6-chloro-7-fluoro-1-methyl-1,3-benzodiazol-5-yl)ethynyl]pyrazolo[4,3-c]pyridin-1-yl}-1-(prop-2-enoyl)pyrrolidin-2-yl]acetonitrile], the IC50 is at most 100 nM.

Turning to `C=CC(=O)N1C[C@@H](n2nc(C#Cc3cc4ncn(C5CC5)c4cc3Cl)c3c(N)ncnc32)C[C@@H]1CC#N` [Example 187, 2-[(2R,4S)-4-{4-Amino-3-[2-(6-chloro-1-cyclopropyl-1,3-benzodiazol-5-yl)ethynyl]pyrazolo[3,4-d]pyrimidin-1-yl}-1-(prop-2-enoyl)pyrrolidin-2-yl]acetonitrile], the IC50 is at most 100 nM.

The compound `C=CC(=O)N1C[C@@H](n2nc(C#Cc3ccc4c(c3)ncn4C3CC3)c3c(N)ncnc32)C[C@@H]1CC#N` [Example 188, 2-[(2R,4S)-4-{4-Amino-3-[2-(1-cyclopropyl-1,3-benzodiazol-5-yl)ethynyl]pyrazolo[3,4-d]pyrimidin-1-yl}-1-(prop-2-enoyl)pyrrolidin-2-yl]acetonitrile] showed an IC50 of at most 100 nM.

As for `C=CC(=O)N1C[C@@H](n2nc(C#Cc3cc4ncn(CC)c4c(F)c3Cl)c3c(N)ncnc32)C[C@@H]1COC` [Example 128, 1-[(2R,4S)-4-[4-amino-3-[2-(6-chloro-1-ethyl-7-fluoro-1,3-benzodiazol-5-yl)ethynyl]pyrazolo[3,4-d]pyrimidin-1-yl]-2-(methoxymethyl)pyrrolidin-1-yl]prop-2-en-1-one], the IC50 is at most 100 nM.

With `C=CC(=O)N1C[C@@H](n2nc(C#Cc3cc4ncn(CC)c4cc3F)c3c(N)nccc32)C[C@@H]1C(F)F` [Example 171, 1-((2R,4S)-4-(4-amino-3-((1-ethyl-6-fluoro-1H-benzo[d]imidazol-5-yl)ethynyl)-1H-pyrazolo[4,3-c]pyridin-1-yl)-2-(difluoromethyl)pyrrolidin-1-yl)prop-2-en-1-one], the IC50 is at most 100 nM.

As to `C=CC(=O)N1C[C@@H](n2nc(C#Cc3c(F)cc4nn(C)cc4c3F)c3c(N)ncnc32)C[C@@H]1COC` [Example 44, 1-((2R,4S)-4-(4-amino-3-((4,6-difluoro-2-methyl-2H-indazol-5-yl)ethynyl)-1H-pyrazolo[3,4-d]pyrimidin-1-yl)-2-(methoxymethyl)pyrrolidin-1-yl)prop-2-en-1-one], the IC50 is at most 100 nM.

Compound `C=CC(=O)N1C[C@@H](n2nc(C#Cc3cc4ncn(C)c4cc3Cl)c3c(N)ncnc32)C[C@@H]1COC` [Example 90, 1-[(2R,4S)-4-[4-Amino-3-[2-(6-chloro-1-methyl-1,3-benzodiazol-5-yl)ethynyl]pyrazolo[3,4-d]pyrimidin-1-yl]-2-(methoxymethyl)pyrrolidin-1-yl]prop-2-en-1-one] showed an IC50 of at most 100 nM.

As for `C=CC(=O)N1C[C@@H](n2nc(C#Cc3cc4ncn(C)c4cc3Cl)c3c(N)nccc32)C[C@@H]1C(F)F` [Example 172, 1-((2R,4S)-4-(4-amino-3-((6-chloro-1-methyl-1H-benzo[d]imidazol-5-yl)ethynyl)-1H-pyrazolo[4,3-c]pyridin-1-yl)-2-(difluoromethyl)pyrrolidin-1-yl)prop-2-en-1-one], the IC50 is at most 100 nM.

For `C=CC(=O)N1C[C@@H](n2nc(C#Cc3cc4ncn(CC)c4cc3F)c3c(N)ncnc32)C[C@@H]1C(F)F` [Example 170, 1-((2R,4S)-4-(4-amino-3-((1-ethyl-6-fluoro-1H-benzo[d]imidazol-5-yl)ethynyl)-1H-pyrazolo[3,4-d]pyrimidin-1-yl)-2-(difluoromethyl)pyrrolidin-1-yl)prop-2-en-1-one], the IC50 was at most 100 nM.

The compound `C=CC(=O)N1C[C@@H](n2nc(C#Cc3c(F)cc4nc(C)[nH]c4c3F)c3c(N)nccc32)C[C@@H]1COC` [Example 95, 1-[(2R,4S)-4-[4-Amino-3-[2-(4,6-difluoro-2-methyl-1H-1,3-benzodiazol-5-yl)ethynyl]pyrazolo[4,3-c]pyridin-1-yl]-2-(methoxymethyl)pyrrolidin-1-yl]prop-2-en-1-one] registered an IC50 of at most 100 nM.

Regarding `C=CC(=O)N1C[C@@H](n2cc(C#Cc3cc4ncn(CC)c4cc3Cl)c3c(N)ncnc32)C[C@@H]1COC` [Example 93, 1-[(2R,4S)-4-[4-Amino-5-[2-(6-chloro-1-ethyl-1,3-benzodiazol-5-yl)ethynyl]pyrrolo[2,3-d]pyrimidin-7-yl]-2-(methoxymethyl)pyrrolidin-1-yl]prop-2-en-1-one], the IC50 is at most 100 nM.

The values above are taken from patent US20230374015A1, “INHIBITORS OF FIBROBLAST GROWTH FACTOR RECEPTOR KINASES” (Kinnate Biopharma Inc., priority 2020, published 2023).
